Reference: paper PMC7726319, “Discovery of 5,5′-Methylenedi-2,3-Cresotic Acid as a Potent Inhibitor of the Chemotactic Activity of the HMGB1·CXCL12 Heterocomplex Using Virtual Screening and NMR Validation” (Frontiers in Chemistry, 2020)

Molecular target: T1, HMGB1 (Mus musculus, UniProt P63158)
T1 construct: 6His-tagged form for MST
T1 sequence (P63158 2-215): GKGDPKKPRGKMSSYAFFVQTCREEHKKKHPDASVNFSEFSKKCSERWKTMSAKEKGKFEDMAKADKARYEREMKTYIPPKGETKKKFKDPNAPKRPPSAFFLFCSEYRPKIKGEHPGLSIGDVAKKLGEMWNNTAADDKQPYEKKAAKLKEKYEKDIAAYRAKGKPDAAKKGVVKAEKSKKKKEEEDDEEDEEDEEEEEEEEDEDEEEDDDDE
Test: 1H-15N HSQC NMR titration (CSP fit)
Format: binding
Conditions: read-out: apparent Kd

Kd: > 10 mM
SMILES: O=C(/C=C/c1ccc(O)c(O)c1)O[C@H](Cc1ccc(O)c(O)c1)C(=O)O [compound 6, rosmarinic acid]
